ChEMBL document CHEMBL5532662, “Exploiting the Carboxylate-Binding Pocket of β-Lactamase Enzymes Using a Focused DNA-Encoded Chemical Library” (J Med Chem, 2024)

Legend:
Escherichia coli [1] = assay: Synergistic antimicrobial activity against Escherichia coli expressing […] assessed as imipenem MIC at 16 ug/ml incubated for 18 hrs by microdilution method (reference value: 8 ug/ml); type: functional; conditions: dose 16 µg/ml
Escherichia coli [2] = assay: Synergistic antimicrobial activity against Escherichia coli expressing […] assessed as imipenem MIC at 32 ug/ml incubated for 18 hrs by microdilution method (reference value: 8 ug/ml); type: functional; conditions: dose 32 µg/ml
Escherichia coli [3] = assay: Synergistic antimicrobial activity against Escherichia coli expressing […] assessed as imipenem MIC at 64 ug/ml incubated for 18 hrs by microdilution method (reference value: 8 ug/ml); type: functional; conditions: dose 64 µg/ml
Escherichia coli [4] = assay: Synergistic antimicrobial activity against Escherichia coli expressing […] assessed as imipenem MIC at 128 ug/ml incubated for 18 hrs by microdilution method (reference value: 8 ug/ml); type: functional; conditions: dose 128 µg/ml
[5] = biological target: T1, Metallo-beta-lactamase type 2 (Bacteria, UniProt C7C422); assay: biochemical
[6] = Binding affinity to his-tagged OXA-48 (unknown origin) expressed in Escherichia coli BL21 (DE3) cells assessed as inhibition constant using nitrocefin as substrate by Morrison equation based analysis; parameters: species or system Bacteria
[7] = biological target: T1, Metallo-beta-lactamase type 2; assay: biochemical; remark: listed apart in the source
[8] = Drug accumulation in Escherichia coli assessed per 10^12 CFU incubated for 10 mins under shaking condition by LC-MS/MS analysis; type: ADME
Escherichia coli [9] = assay: Synergistic antimicrobial activity against Escherichia coli expressing […] assessed as imipenem MIC at 8 ug/ml incubated for 18 hrs by microdilution method (reference value: 8 ug/ml); type: functional; conditions: dose 8 µg/ml

T1 sequence (C7C422 whole entry): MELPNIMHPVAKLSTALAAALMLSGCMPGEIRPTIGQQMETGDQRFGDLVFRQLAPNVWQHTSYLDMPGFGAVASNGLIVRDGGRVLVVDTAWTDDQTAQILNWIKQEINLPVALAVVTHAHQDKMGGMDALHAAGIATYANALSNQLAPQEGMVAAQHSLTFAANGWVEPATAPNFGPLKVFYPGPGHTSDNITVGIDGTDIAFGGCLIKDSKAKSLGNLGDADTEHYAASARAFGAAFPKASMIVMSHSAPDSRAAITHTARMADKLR

Ki [7] | SMILES | MIC (Escherichia coli [1]) | MIC (Escherichia coli [2]) | MIC (Escherichia coli [3]) | MIC (Escherichia coli [4]) | Ki [5] | Ki [6] | Drug uptake [8] | MIC (Escherichia coli [9])
– | NCc1cccc(NCc2cc(-c3ccc(C(=O)O)c(O)c3)ccn2)c1 | 8 µg/mL | 8 µg/mL | 4 µg/mL | 4 µg/mL | – | – | – | –
– | NCc1cccc(NCc2cc(C(=O)O)cc(-c3ccc(C(=O)O)c(O)c3)c2)c1 | – | – | – | – | 140 µM | – | – | –
– | NCc1cccc(NCc2cc(O)cc(-c3ccc(C(=O)O)c(O)c3)c2)c1 | 4 µg/mL | 4 µg/mL | 4 µg/mL | 4 µg/mL | – | – | – | –
– | NCc1cccc(NC(=O)c2cccc(-c3ccc(C(=O)O)c(O)c3)c2)c1 | 8 µg/mL | 8 µg/mL | 8 µg/mL | 8 µg/mL | 30 µM | – | – | –
– | CN(C)C(=O)C1CCN(c2ccc(CNCc3ccccc3-c3cccc(C(=O)O)c3)cc2C#N)CC1 | – | – | – | – | – | 8 µM | – | –
500 µM | CNCc1ccc(-c2ccc(C(=O)O)c(O)c2)o1 | – | – | – | – | – | – | – | –
– | CNCc1cccc(NCc2ccc(-c3ccc(C(=O)O)cc3)o2)c1 | – | – | – | – | 9 µM | – | – | –
– | NCc1cccc(NCc2ccc(-c3ccc(C(=O)O)c(O)c3)s2)c1 | 4 µg/mL | 4 µg/mL | 4 µg/mL | 4 µg/mL | 1.5 µM | – | – | –
– | NCc1cccc(NCc2cccc(-c3ccc(C(=O)O)c(O)c3)n2)c1 | 4 µg/mL | 4 µg/mL | 4 µg/mL | 2 µg/mL | – | – | Active | –
– | NCc1cc(O)cc(NCc2cccc(-c3ccc(C(=O)O)c(O)c3)c2)c1 | 4 µg/mL | 4 µg/mL | 4 µg/mL | 4 µg/mL | – | – | – | –
– | COc1cc(-c2cc(O)cc(C(=O)O)c2)ccc1C(=O)O | – | – | – | – | – | 0.6 µM | – | –
– | NCc1cccc(NCc2ccc(-c3ccc(C(=O)O)c(O)c3)o2)c1 | 4 µg/mL | 4 µg/mL | 4 µg/mL | 4 µg/mL | – | – | – | –
– | NCc1cccc(NCc2cccc(-c3ccc(C(=O)O)c(O)c3)c2)c1 | 4 µg/mL | 4 µg/mL | 4 µg/mL | – | 0.6 µM | – | Active | 4 µg/mL
– | CNCc1cccc(NCc2cccc(-c3ccc(C(=O)O)c(O)c3)c2)c1 | 4 µg/mL | 4 µg/mL | 4 µg/mL | 4 µg/mL | – | – | – | –
– | CC(=O)NCc1cccc(NCc2cccc(-c3ccc(C(=O)O)c(O)c3)c2)c1 | – | – | – | – | > 100 µM | – | – | –
– | CNCc1cccc(NCc2ccc(-c3cccc(C(=O)O)c3O)o2)c1 | 8 µg/mL | 8 µg/mL | 8 µg/mL | 4 µg/mL | – | – | – | –
– | CNC(=O)CCc1ccc(CNCc2cccc(NCc3ccc(-c4ccc(C(=O)O)c(O)c4)o3)c2)cc1 | 8 µg/mL | 8 µg/mL | 8 µg/mL | 8 µg/mL | – | – | – | –
– | Cc1cc(CNc2cccc(CN)c2)cc(-c2ccc(C(=O)O)c(O)c2)c1 | 4 µg/mL | 4 µg/mL | – | – | 0.5 µM | – | – | 4 µg/mL
– | Cc1cccc(NCc2cccc(-c3ccc(C(=O)O)c(O)c3)c2)c1 | – | – | – | – | > 100 µM | – | – | –
– | NCc1cccc(NCc2ccc(-c3cccc(C(=O)O)c3O)o2)c1 | 8 µg/mL | 4 µg/mL | 4 µg/mL | 4 µg/mL | – | – | – | –
– | NCc1cccc(NCc2cncc(-c3ccc(C(=O)O)c(O)c3)c2)c1 | 8 µg/mL | 8 µg/mL | 8 µg/mL | 4 µg/mL | – | – | – | –
– | CNCc1cccc(NCc2ccc(-c3ccc(C(=O)O)c(O)c3)o2)c1 | 4 µg/mL | 4 µg/mL | 4 µg/mL | 4 µg/mL | – | – | Not Active | –
– | Nc1cccc(CCCNCc2ccccc2-c2cccc(C(=O)O)c2)c1 | – | – | – | – | – | 130 µM | – | –
– | NCc1cccc(N2Cc3ccc(-c4ccc(C(=O)O)c(O)c4)cc3C2)c1 | 8 µg/mL | 8 µg/mL | 8 µg/mL | 8 µg/mL | 50 µM | – | – | –
– | NCc1cccc(NCc2ccnc(-c3ccc(C(=O)O)c(O)c3)c2)c1 | 8 µg/mL | 8 µg/mL | 4 µg/mL | 4 µg/mL | – | – | – | –
